Laboratory results published in the OligoGym collection.
HELM strings list units from the 5' end as sugar, base in round brackets, then linkage (d deoxyribose, r ribose, m 2'-O-methyl, p phosphodiester). Strings are as the collection lists them; they lack the last nucleoside at the 3' end of the tested compound. [moe] = 2'-O-(2-methoxyethyl) (MOE); [sp] = phosphorothioate linkage; [m5C] = 5-methylcytosine

Each substance was assayed against SCN2A (assay: mouse, dose not given). Settings: ASO.

In order of rising 3 h FOB score:
1. RNA1{[moe](A)[sp].[moe](T)p.[moe](G)p.[moe](T)p.[moe](A)p.d(A)[sp].d([m5C])[sp].d([m5C])[sp].d(T)[sp].d(T)[sp].d(T)[sp].d(A)[sp].d(T)[sp].d(A)[sp].d([m5C])[sp].[moe](A)p.[moe](T)p.[moe](T)[sp].[moe](T)}$$$$ (last 3' nucleoside missing)  0 score 0-7
2. RNA1{[moe](T)[sp].[moe](G)p.[moe]([m5C])p.[moe](A)[sp].d(T)[sp].d(G)[sp].d(T)[sp].d(A)[sp].d(A)[sp].d([m5C])[sp].d([m5C])[sp].d(T)[sp].[moe](T)p.[moe](T)p.[moe](A)p.[moe](T)[sp].[moe](A)}$$$$ (last 3' nucleoside missing)  0 score 0-7
3. RNA1{[moe](G)[sp].[moe]([m5C])p.[moe]([m5C])p.[moe](A)p.d(T)[sp].d(T)[sp].d(T)[sp].d([m5C])[sp].d(T)[sp].d(A)[sp].d(T)[sp].d(A)[sp].d(A)[sp].d([m5C])[sp].[moe](T)p.[moe]([m5C])p.[moe](A)p.[moe](G)[sp].[moe]([m5C])}$$$$ (last 3' nucleoside missing)  0 score 0-7
4. RNA1{[moe](T)[sp].[moe](G)p.[moe](G)p.[moe](A)p.[moe]([m5C])p.[moe]([m5C])p.d(G)[sp].d(T)[sp].d([m5C])[sp].d(T)[sp].d([m5C])[sp].d(T)[sp].d(T)[sp].d(T)[sp].d([m5C])[sp].d(T)[sp].[moe](T)p.[moe](A)[sp].[moe](T)}$$$$ (last 3' nucleoside missing)  0 score 0-7
5. RNA1{[moe](T)[sp].[moe]([m5C])p.[moe](A)p.[moe](T)p.d(G)[sp].d([m5C])[sp].d(A)[sp].d(T)[sp].d(A)[sp].d(A)[sp].d(T)[sp].d([m5C])[sp].d([m5C])[sp].d([m5C])[sp].[moe](A)p.[moe](T)p.[moe](T)p.[moe](A)[sp].[moe](T)}$$$$ (last 3' nucleoside missing)  0 score 0-7
6. RNA1{[moe]([m5C])[sp].[moe](A)p.[moe](T)p.[moe](T)p.[moe](T)p.[moe]([m5C])p.d(T)[sp].d(A)[sp].d(T)[sp].d(A)[sp].d(A)[sp].d([m5C])[sp].d(T)[sp].d([m5C])[sp].d(A)[sp].d(G)[sp].[moe]([m5C])p.[moe](A)[sp].[moe](A)}$$$$ (last 3' nucleoside missing)  0 score 0-7
7. RNA1{[moe](T)[sp].[moe]([m5C])p.[moe]([m5C])p.[moe](A)p.d([m5C])[sp].d(G)[sp].d(A)[sp].d([m5C])[sp].d(A)[sp].d(T)[sp].d(A)[sp].d(T)[sp].d(T)[sp].d(T)[sp].[moe](T)p.[moe](T)p.[moe]([m5C])p.[moe](T)[sp].[moe](A)}$$$$ (last 3' nucleoside missing)  0 score 0-7
8. RNA1{[moe](T)[sp].[moe]([m5C])p.[moe](T)p.[moe](G)p.[moe]([m5C])p.d(A)[sp].d(T)[sp].d(G)[sp].d(T)[sp].d(A)[sp].d(A)[sp].d([m5C])[sp].d([m5C])[sp].d(T)[sp].d(T)[sp].[moe](T)p.[moe](A)p.[moe](T)[sp].[moe](A)}$$$$ (last 3' nucleoside missing)  0 score 0-7
9. RNA1{[moe](A)[sp].[moe]([m5C])p.[moe](G)p.[moe](A)p.d([m5C])[sp].d(A)[sp].d(T)[sp].d(A)[sp].d(T)[sp].d(T)[sp].d(T)[sp].d(T)[sp].d(T)[sp].d([m5C])[sp].[moe](T)p.[moe](A)p.[moe]([m5C])p.[moe](A)[sp].[moe]([m5C])}$$$$ (last 3' nucleoside missing)  0 score 0-7
10. RNA1{[moe]([m5C])[sp].[moe](A)p.[moe](T)p.[moe](G)p.[moe](T)p.[moe](A)p.d(A)[sp].d(T)[sp].d([m5C])[sp].d(A)[sp].d([m5C])[sp].d(T)[sp].d(T)[sp].d(T)[sp].d([m5C])[sp].d(A)[sp].[moe](T)p.[moe]([m5C])[sp].[moe]([m5C])}$$$$ (last 3' nucleoside missing)  0 score 0-7
11. RNA1{[moe]([m5C])[sp].[moe](A)p.[moe](T)p.[moe](G)p.[moe](T)p.d(A)[sp].d(A)[sp].d(T)[sp].d([m5C])[sp].d(A)[sp].d([m5C])[sp].d(T)[sp].d(T)[sp].d(T)[sp].d([m5C])[sp].[moe](A)p.[moe](T)p.[moe]([m5C])[sp].[moe]([m5C])}$$$$ (last 3' nucleoside missing)  0 score 0-7
12. RNA1{[moe](G)[sp].[moe](T)p.[moe](A)p.[moe](A)p.d([m5C])[sp].d([m5C])[sp].d(T)[sp].d(T)[sp].d(T)[sp].d(A)[sp].d(T)[sp].d(A)[sp].d([m5C])[sp].d(A)[sp].[moe](T)p.[moe](T)p.[moe](T)p.[moe](A)[sp].[moe](A)}$$$$ (last 3' nucleoside missing)  0 score 0-7
13. RNA1{[moe](G)[sp].[moe]([m5C])p.[moe](A)p.[moe](T)p.d(G)[sp].d(T)[sp].d(T)[sp].d(T)[sp].d(A)[sp].d(T)[sp].d([m5C])[sp].d(T)[sp].d(T)[sp].d(A)[sp].[moe](G)p.[moe](T)p.[moe](T)p.[moe]([m5C])[sp].[moe](T)}$$$$ (last 3' nucleoside missing)  0 score 0-7
14. RNA1{[moe](G)[sp].[moe]([m5C])p.[moe](A)p.[moe](T)p.d(A)[sp].d(A)[sp].d(T)[sp].d([m5C])[sp].d([m5C])[sp].d([m5C])[sp].d(A)[sp].d(T)[sp].d(T)[sp].d(A)[sp].[moe](T)p.[moe](A)p.[moe]([m5C])p.[moe](A)[sp].[moe](A)}$$$$ (last 3' nucleoside missing)  0 score 0-7
15. RNA1{[moe](T)[sp].[moe]([m5C])p.[moe](T)p.[moe](G)p.[moe]([m5C])p.[moe](A)p.d(T)[sp].d(G)[sp].d(T)[sp].d(A)[sp].d(A)[sp].d([m5C])[sp].d([m5C])[sp].d(T)[sp].d(T)[sp].d(T)[sp].[moe](A)p.[moe](T)[sp].[moe](A)}$$$$ (last 3' nucleoside missing)  0 score 0-7
16. RNA1{[moe](A)[sp].[moe](A)p.[moe](T)p.[moe]([m5C])p.d(A)[sp].d([m5C])[sp].d(T)[sp].d(T)[sp].d(T)[sp].d([m5C])[sp].d(A)[sp].d(T)[sp].d([m5C])[sp].d([m5C])[sp].[moe](A)p.[moe]([m5C])p.[moe](G)p.[moe](A)[sp].[moe]([m5C])}$$$$ (last 3' nucleoside missing)  0.33 score 0-7
17. RNA1{[moe](A)[sp].[moe](T)p.[moe](G)p.[moe](T)p.d(A)[sp].d(A)[sp].d(T)[sp].d([m5C])[sp].d(A)[sp].d([m5C])[sp].d(T)[sp].d(T)[sp].d(T)[sp].d([m5C])[sp].[moe](A)p.[moe](T)p.[moe]([m5C])p.[moe]([m5C])[sp].[moe](A)}$$$$ (last 3' nucleoside missing)  0.33 score 0-7
18. RNA1{[moe](A)[sp].[moe](A)p.[moe](T)p.[moe](T)p.[moe]([m5C])p.[moe](T)p.d(A)[sp].d(T)[sp].d(T)[sp].d(T)[sp].d(T)[sp].d(A)[sp].d(T)[sp].d(A)[sp].d(A)[sp].d(A)[sp].[moe](T)p.[moe](G)[sp].[moe]([m5C])}$$$$ (last 3' nucleoside missing)  0.33 score 0-7
19. RNA1{[moe](G)[sp].[moe](A)p.[moe](G)p.[moe](A)p.[moe](T)p.d(T)[sp].d(G)[sp].d([m5C])[sp].d(T)[sp].d(T)[sp].d(T)[sp].d([m5C])[sp].d([m5C])[sp].d([m5C])[sp].d(T)[sp].[moe](T)p.[moe](T)p.[moe](A)[sp].[moe](T)}$$$$ (last 3' nucleoside missing)  1 score 0-7
20. RNA1{[moe](A)[sp].[moe](T)p.[moe](T)p.[moe](T)p.[moe]([m5C])p.[moe](T)p.d(A)[sp].d(T)[sp].d(A)[sp].d(A)[sp].d([m5C])[sp].d(T)[sp].d([m5C])[sp].d(A)[sp].d(G)[sp].d([m5C])[sp].[moe](A)p.[moe](A)[sp].[moe]([m5C])}$$$$ (last 3' nucleoside missing)  1 score 0-7
21. RNA1{[moe](A)[sp].[moe]([m5C])p.[moe]([m5C])p.[moe](G)p.[moe](A)p.[moe](A)p.d(T)[sp].d(T)[sp].d([m5C])[sp].d(T)[sp].d(A)[sp].d(T)[sp].d(T)[sp].d(T)[sp].d(T)[sp].d(A)[sp].[moe](T)p.[moe](A)[sp].[moe](A)}$$$$ (last 3' nucleoside missing)  1.67 score 0-7
22. RNA1{[moe]([m5C])[sp].[moe](G)p.[moe](A)p.[moe](A)p.[moe](T)p.d(T)[sp].d([m5C])[sp].d(T)[sp].d(A)[sp].d(T)[sp].d(T)[sp].d(T)[sp].d(T)[sp].d(A)[sp].d(T)[sp].[moe](A)p.[moe](A)p.[moe](A)[sp].[moe](T)}$$$$ (last 3' nucleoside missing)  1.67 score 0-7
23. RNA1{[moe]([m5C])[sp].[moe](A)p.[moe](G)p.[moe](T)p.d(T)[sp].d(T)[sp].d(T)[sp].d(T)[sp].d(T)[sp].d([m5C])[sp].d(A)[sp].d(T)[sp].d(T)[sp].d(G)[sp].[moe]([m5C])p.[moe](A)p.[moe](T)p.[moe]([m5C])[sp].[moe]([m5C])}$$$$ (last 3' nucleoside missing)  2 score 0-7
24. RNA1{[moe](A)[sp].[moe](T)p.[moe](T)p.[moe]([m5C])p.[moe](T)p.[moe](A)p.d(T)[sp].d(T)[sp].d(T)[sp].d(T)[sp].d(A)[sp].d(T)[sp].d(A)[sp].d(A)[sp].d(A)[sp].d(T)[sp].[moe](G)p.[moe]([m5C])[sp].[moe]([m5C])}$$$$ (last 3' nucleoside missing)  2 score 0-7
25. RNA1{[moe](T)[sp].[moe](A)p.[moe](T)p.[moe](T)p.[moe](T)p.d(T)[sp].d(T)[sp].d([m5C])[sp].d(T)[sp].d(A)[sp].d([m5C])[sp].d(A)[sp].d([m5C])[sp].d(T)[sp].d(G)[sp].[moe]([m5C])p.[moe](T)p.[moe](G)[sp].[moe]([m5C])}$$$$ (last 3' nucleoside missing)  2.67 score 0-7
26. RNA1{[moe](A)[sp].[moe](G)p.[moe](T)p.[moe](T)p.d(T)[sp].d(T)[sp].d(T)[sp].d(T)[sp].d([m5C])[sp].d(A)[sp].d(T)[sp].d(T)[sp].d(G)[sp].d([m5C])[sp].[moe](A)p.[moe](T)p.[moe]([m5C])p.[moe]([m5C])[sp].[moe](T)}$$$$ (last 3' nucleoside missing)  3 score 0-7
